These results are taken from patent US20110112097A1, “Substituted imidazoline-2,4-diones, process for preparation thereof, medicaments comprising these compounds and use thereof” (SANOFI-AVENTIS, priority 2008, published 2011).

This assay concerns the target hCB1R (Homo sapiens, UniProt P21554). The assay is described as follows: Binding to the CB1 receptor ([3H]-SR141716A displacement). The conditions noted are these: CHO-K1/cannabinoid CB1 protein 2 μg/well; [3H]-SR141716A 0.5 nM; Ki from IC50 by Cheng-Prusoff; average of double determination; read-out: hCB1R; binding Ki. Here is the method:
Binding to the CB1 Receptor:
Test compounds: The compounds (3 μl, 10 mM, 100% DMSO), pipetted into 96-well PP microtiter plates, were diluted with 27 μl of 100% DMSO (dimethyl sulfoxide). Proceeding from this solution, further 3-fold dilution steps were undertaken by transferring 10 μl in each case to a new PP microtiter plate and adding a further 20 μl of 100% DMSO. In each case 6 μl of these solutions were transferred into new 96-well PP microtiter plates and made up with 144 μl of assay buffer. The end concentrations ranged from 10 μM to 0.005 μM.
Negative control: AM 251, dissolved in assay buffer with 1% DMSO, was added to the dilution series in the microtiter plates as a control. The end concentration was 1 μM.
Blank control: assay buffer with 1% DMSO was added to the dilution series of the microtiter plates as a blank control.
Summary of the Assay Parameters:
High control: ^3H binding without addition of the compound Low control: ^3H binding in the presence of 1 μM AM 251
The values were calculated using the corrected raw data.
The values reported were obtained as average values of a double determination. The IC50 values were calculated from the measurements with the program Xlfit, formula 205. Ki values were obtained from the IC50 and Kd values utilizing the Cheng-Prusoff equation:
[formula] • Literature: Cheng, Y.-C., and Prusoff, W. H. (1973) Biochem. Pharmacol 22, 3099-3108

pKi: −log10 of the molar value. Counter-ions that a name gives are not always drawn.

Chain of hCB1R (P21554 whole entry): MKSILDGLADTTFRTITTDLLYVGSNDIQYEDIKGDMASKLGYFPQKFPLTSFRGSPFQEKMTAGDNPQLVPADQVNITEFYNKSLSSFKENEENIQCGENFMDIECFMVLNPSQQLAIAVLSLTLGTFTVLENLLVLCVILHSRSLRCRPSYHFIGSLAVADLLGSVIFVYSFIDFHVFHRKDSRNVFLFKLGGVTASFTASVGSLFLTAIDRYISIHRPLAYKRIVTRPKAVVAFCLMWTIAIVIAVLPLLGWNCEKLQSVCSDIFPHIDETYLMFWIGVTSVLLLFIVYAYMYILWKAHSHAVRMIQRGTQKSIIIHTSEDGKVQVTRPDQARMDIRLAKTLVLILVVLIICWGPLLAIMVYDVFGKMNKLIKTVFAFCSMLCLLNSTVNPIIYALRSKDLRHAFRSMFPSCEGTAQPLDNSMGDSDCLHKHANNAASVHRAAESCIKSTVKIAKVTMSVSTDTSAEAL

For `CC1(C)C(=O)N(c2ccc(Cl)c(Cl)c2)C(=O)N1Cc1ccccc1Cc1ccccc1` [Example 64], the pKi is 7.01. For `CCc1cccc(N2C(=O)N(Cc3ccccc3Cc3ccccc3)C(C)(C)C2=O)c1` [Example 1, 1-(2-Benzylbenzyl)-3-(3-ethylphenyl)-5,5-dimethylimidazolidine-2,4-dione] the value was 6.66.

Regarding `CC1(C)C(=O)N(c2ccc(C#N)c(C(F)(F)F)c2)C(=O)N1Cc1ccc(F)cc1C(=O)c1ccc(Cl)cc1` [Example 139, 4-{3-[2-(4-Chloro-benzoyl)-4-fluorobenzyl]-4,4-dimethyl-2,5-dioxo-imidazolidin-1-yl}-2-trifluoromethylbenzonitrile], the pKi was 7.11.

`N#Cc1ccc(N2C(=O)N(Cc3ccccc3Cc3ccccc3)C3(CCCCC3)C2=O)cc1C(F)(F)F` [Example 114, 4-[1-(2-Benzylbenzyl)-2,4-dioxo-1,3-diazaspiro[4.5]dec-3-yl]-2-trifluoromethylbenzonitrile]: the pKi was 7.20. In the case of `CC1(C)C(=O)N(c2ccc(F)c(F)c2)C(=O)N1Cc1ccccc1Cc1ccccc1` [Example 41] it was 6.73. In the case of `CC1(C)C(=O)N(c2cccc(C(F)(F)F)c2)C(=O)N1Cc1ccccc1Cc1ccccc1` [Example 7] it was 7.02. As for `CC1(C)C(=O)N(c2ccc(Oc3ccc(Cl)cc3)c(C(F)(F)F)c2)C(=O)N1Cc1ccccc1Cc1ccccc1` [Example 101, 1-(2-Benzylbenzyl)-3-[4-(4-chlorophenoxy)-3-trifluoromethylphenyl]-5,5-dimethylimidazolidine-2,4-dione], the pKi is 7.00. For `N#Cc1ccc(N2C(=O)N(Cc3ccccc3Cc3ccccc3)C3(CCCCCC3)C2=O)cc1C(F)(F)F` [Example 116, 4-[1-(2-Benzylbenzyl)-2,4-dioxo-1,3-diazaspiro[4.6]undec-3-yl]-2-trifluoromethylbenzonitrile] the value was 7.59; for `CC1(C)C(=O)N(c2ccc(C#N)nc2)C(=O)N1Cc1ccccc1Cc1ccccc1` [Example 123, 543-(2-Benzylbenzyl)-4,4-dimethyl-2,5-dioxo-imidazolidin-1-yl]pyridine-2-carbonitrile; hydrochloride], 6.85; for `CC1(C)C(=O)N(c2cccc(C#N)c2)C(=O)N1Cc1ccccc1Cc1ccccc1` [Example 16], 6.76.

On to `CC1(C)C(=O)N(c2ccc(C#N)c(C(F)(F)F)c2)C(=O)N1Cc1ccc(F)cc1C(=O)c1ccc(C(F)(F)F)cc1` [Example 155, 4-{3-[4-Fluoro-2-(4-trifluoromethylbenzoyl)-benzyl]-4,4-dimethyl-2,5-dioxoimidazolidin-1-yl}-2-trifluoromethylbenzonitrile], for which the pKi was 7.16.

In the case of `CN1CCC2(CC1)C(=O)N(c1ccc(C#N)c(C(F)(F)F)c1)C(=O)N2Cc1ccccc1Cc1ccccc1` [Example 111, 4-[1-(2-Benzylbenzyl)-8-methyl-2,4-dioxo-1,3,8-triazaspiro[4.5]dec-3-yl]-2-trifluoromethylbenzo-nitrile; trifluoroacetate], the pKi is 7.21. For `CC1(C)C(=O)N(c2ccnc(Cl)c2)C(=O)N1Cc1ccccc1Cc1ccccc1` [Example 117, 1-(2-Benzylbenzyl)-3-(2-chloropyridin-4-yl)-5,5-dimethylimidazolidine-2,4-dione] the value was 7.03; for `COC(=O)c1ccc(C(=O)c2ccc(CN3C(=O)N(c4ccc(F)c(C(F)(F)F)c4)C(=O)C3(C)C)cc2)cc1` [Example 151, Methyl 4-{4-[3-(4-fluoro-3-trifluoromethylphenyl)-5,5-dimethyl-2,4-dioxo-imidazolidin-1-ylmethyl]-benzoyl}benzoate], 7.21. As for `CC1(C)C(=O)N(c2cccc(SC(F)(F)F)c2)C(=O)N1Cc1ccccc1Cc1ccccc1` [Example 13], the pKi is 7.18.

For the compound `CC1(C)C(=O)N(c2cc(Cl)cc(Cl)c2)C(=O)N1Cc1ccccc1Cc1ccccc1` [Example 65], the pKi is 6.82. For `CC1(C)C(=O)N(c2cc(C(F)(F)F)ccc2F)C(=O)N1Cc1ccccc1Cc1ccccc1` [Example 11] the value was 6.88.
